Measurements: paper PMC6895048, “4,5-Disubstituted 1,2,3-triazoles: Effective Inhibition of Indoleamine 2,3-Dioxygenase 1 Enzyme Regulates T cell Activity and Mitigates Tumor Growth” (Scientific Reports, 2019)
Values joined by “and” are separate entries in the source; they are usually repeats but may differ in a detail not shown here. Identical values can stand only once.

Assays:
IDO1 [1] = target: T1, IDO1 (Homo sapiens, UniProt P14902); assay: Determination of mode of enzyme inhibition (Lineweaver-Burk); assay type: biochemical; design: made in house; host or cells: Escherichia coli M15 (pQE30 vector with pREP4 plasmid); conditions: for Ki: Km = 59.76 µM and Kcat = 6.18 sec-1; for Mode of IDO1 inhibition: with respect to L-Trp
T1 sequence (P14902 whole entry): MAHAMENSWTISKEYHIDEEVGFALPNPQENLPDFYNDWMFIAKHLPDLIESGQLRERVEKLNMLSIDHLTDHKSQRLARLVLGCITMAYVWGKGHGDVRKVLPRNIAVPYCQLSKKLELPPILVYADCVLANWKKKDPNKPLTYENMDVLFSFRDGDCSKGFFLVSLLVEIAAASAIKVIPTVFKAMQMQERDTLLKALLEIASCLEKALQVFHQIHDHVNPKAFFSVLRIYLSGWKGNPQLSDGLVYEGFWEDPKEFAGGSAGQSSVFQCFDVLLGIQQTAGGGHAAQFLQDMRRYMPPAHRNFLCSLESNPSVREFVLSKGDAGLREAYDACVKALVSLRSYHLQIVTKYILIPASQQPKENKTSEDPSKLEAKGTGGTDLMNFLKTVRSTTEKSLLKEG
Procedure: The mode of IDO1 enzyme inhibition was measured according to the reported spectrophotometric method. The assay was performed by varying both tryptophan concentration from 50 to 150 µM and inhibitor concentration from 32 nM to 4 µM. The amount of formation of N-formylkynurenine was recorded at different time intervals. The mode of enzyme inhibition was determined from the plot of 1/V against 1/[S], where V is the initial rate of the enzymatic reaction and [S] is the L-Trp concentration.

TDO enzyme = target: T2, TDO enzyme (Homo sapiens, UniProt P48775); assay: HPLC based TDO inhibition assay; assay type: biochemical
T2 construct: 6xHis (N); made in house; host or cells: Escherichia coli BL21 (DE3) (pET 28a vector)
T2 sequence (P48775 whole entry): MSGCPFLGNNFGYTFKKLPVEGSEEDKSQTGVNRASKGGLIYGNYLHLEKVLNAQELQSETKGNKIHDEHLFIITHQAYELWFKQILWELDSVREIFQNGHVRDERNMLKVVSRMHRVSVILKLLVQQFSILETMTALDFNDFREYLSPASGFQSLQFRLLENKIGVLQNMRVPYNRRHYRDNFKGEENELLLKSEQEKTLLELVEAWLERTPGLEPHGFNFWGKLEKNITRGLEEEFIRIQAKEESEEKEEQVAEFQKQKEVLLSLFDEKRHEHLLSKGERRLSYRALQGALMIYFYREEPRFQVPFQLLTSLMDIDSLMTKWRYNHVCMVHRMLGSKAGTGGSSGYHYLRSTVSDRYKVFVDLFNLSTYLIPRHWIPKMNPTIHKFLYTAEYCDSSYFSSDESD
Procedure: HPLC based IDO1, and TDO inhibition assays were performed according to the earlier reported procedure[19],[27]–[30]. The reaction mixture (250 µL) contained KPB (100 mM, pH 6.5 for IDO1 and 50 mM, pH 8.0 for TDO), sodium ascorbate (20 mM), methylene blue (10 µM), catalase (240 nM, from bovine liver, Sigma), L-Trp (150 µM), purified enzyme (40 nM for IDO1 and 25 nM for TDO), DMSO (0.05%, v/v), Triton-X 100 (0.01%, v/v) and inhibitors. The concentration of the compound was varied from 100 µM to 32 nM by serial dilution. The mixture was incubated at 37 °C for 1 hour in the absence and presence of the synthesized compounds. The reaction was then quenched using 50 µL of 30% (w/v) trichloroacetic acid and incubated at 65 °C for additional 15 minutes to allow complete hydrolysis of N-formylkynurenine to kynurenine. After that, the mixture was centrifuged at 10,000 rpm for 10 minutes, and 100 µL of clear solution was transferred to another tube for HPLC analysis. Then, 20 µL of the reaction mixture was then injected through Ascentis® express C18, 2.7 µm HPLC column with a flow rate of 0.5 mL/minute of the mobile phase containing 50% sodium citrate buffer (40 mM, pH 2.25) and 50% methanol (v/v) with 400 µM SDS. The area under the curve at 365 nm chromatogram corresponding to the kynurenine formation was recorded, and % of inhibition was calculated using standard curve prepared with pure kynurenine (from Sigma) under similar experimental conditions.

IDO1 [2] = target: T1, IDO1; assay: Circular dichroism analysis of IDO1 enzyme; design: made in house; host or cells: Escherichia coli M15 (pQE30 vector with pREP4 plasmid)
Procedure: The Circular Dichroism (CD) spectra of the IDO1 enzyme in the absence or presence of compounds were recorded with a Jasco-810-spectropolarimeter according to the reported procedure[37],[38]. Samples of rIDO1 (2 μM) were prepared in 10 mM KPB buffer (pH 6.5) in a […] quartz cuvette. Spectra were recorded by varying the concentration of the compound (250 nM to 4 µM) using a 1 mL quartz cuvette of 1 cm path length with a Jasco J-1500 spectropolarimeter at 17 °C. Also the spectra were collected at a scan rate […] and 1 nm bandwidth from 200 nm to 260 nm with three times scan for averaging. All final spectra were corrected for buffer background CD signals. The % of the secondary structures of the IDO1 enzyme was analyzed using the inbuilt software of the instrument.

[3] = Serum binding by Trp-fluorescence quenching; assay type: in vitro ADME, human; conditions: qualitative; compared with compound 4i
Procedure: Tryptophan fluorescence measurements of the human serum were performed in the presence of compounds on a Fluoromax-4 spectrofluorometer at room temperature. For fluorescence measurements, 30 µL of 100% human serum and varying concentrations (0–220 µM) of compounds were incubated in 10 mM PBS buffer, pH 7.4. The solution was excited at 290 nm, and emission spectra were recorded from 300 to 560 nm. The resulting tryptophan emission spectra for each concentration of the compounds were plotted.

EAC solid tumor = EAC solid tumor model in vivo; design: species or system female Swiss albino mice; conditions: for tumor growth inhibition (TGI): 5 mg/kg body weight, intravenously at alternate days, female Swiss albino mice; for CD8+ T cell population in vivo solid tumors: flow cytometry of tumor tissue post sacrifice
Procedure: Female Swiss albino mice of age 6 weeks (weight = 20 gm) were selected for the experiments. Animals were housed in animal facility room, Department of Zoology, University of Calcutta at 25 ± 2 °C, relative humidity of nearly 45 ± 5% with alternative 12 hours day/ night cycle with access of food and water. All the experiments were carried out as per guideline of the Committee for the Purpose of Control and Supervision of Experimental Animals (CPCSEA), Government of India (Registration No: 885/GO/Re/S/05/CPCSEA) and approved by the Institutional animal ethical committee (IAEC), University of Calcutta.
Ehrlich ascites carcinoma (EAC) cells were maintained in the ascetic form in female Swiss albino mice by intraperitoneal transplantation every 10th day on each mice. The ascetic fluid was drawn on 7th day on implantation according to previously described protocol. Isolated cells were diluted in sterile PBS. 2 × 10^6 cells were then implanted on thigh muscle of all the animals selected for experiment.
Female Swiss albino mice were divided into four groups (n = 6 each group). Post inoculation of the cells in thigh muscle on day 0 mice in their respective group was allowed to treat for 5 days on every alternate day at treatment of 5 mg/ kg body weight described below. All the mice were sacrificed on day 10.
Tumor tissues post sacrifice were digested in collagenase IV medium for 2 hours. The tissues were passed through wire mesh and single-cell strainer. Then the cells were washed in PBS, and immunophenotyping was performed, and cells were stained against APC-CD8 for finding infiltrated CD8 T cell populations by flow cytometry analysis.

| Compound | Ki (IDO1 [1]) [nM] | Mode of IDO1 inhibition (IDO1 [1]) | % of Secondary structural elements, Beta (IDO1 [2]; compound 0.25 µM) [%] | % of Secondary structural elements, Helix (IDO1 [2]; compound 0.25 µM) [%] | % of Secondary structural elements, Random (IDO1 [2]; compound 0.25 µM) [%] | % of Secondary structural elements, Turn (IDO1 [2]; compound 0.25 µM) [%] | % of Secondary structural elements, Beta (IDO1 [2]; compound 0.5 µM) [%] | % of Secondary structural elements, Helix (IDO1 [2]; compound 0.5 µM) [%] | % of Secondary structural elements, Random (IDO1 [2]; compound 0.5 µM) [%] | % of Secondary structural elements, Turn (IDO1 [2]; compound 0.5 µM) [%] | % of Secondary structural elements, Beta (IDO1 [2]; compound 1 µM) [%] | % of Secondary structural elements, Helix (IDO1 [2]; compound 1 µM) [%] | % of Secondary structural elements, Random (IDO1 [2]; compound 1 µM) [%] | % of Secondary structural elements, Turn (IDO1 [2]; compound 1 µM) [%] | % of Secondary structural elements, Beta (IDO1 [2]; compound 2 µM) [%] | % of Secondary structural elements, Helix (IDO1 [2]; compound 2 µM) [%] | % of Secondary structural elements, Random (IDO1 [2]; compound 2 µM) [%] | % of Secondary structural elements, Turn (IDO1 [2]; compound 2 µM) [%] | % of Secondary structural elements, Beta (IDO1 [2]; compound 4 µM) [%] | % of Secondary structural elements, Helix (IDO1 [2]; compound 4 µM) [%] | further results |
| --- | --- | --- | --- | --- | --- | --- | --- | --- | --- | --- | --- | --- | --- | --- | --- | --- | --- | --- | --- | --- | --- |
| CCOC(=O)c1n[nH]nc1-c1ccc(F)c(F)c1 [Compound 2i] | 241 ± 38 | competitive | 0 | 28 | 37.9 | 34.1 | 0 | 28.7 | 36.1 | 35.2 | 0 | 30.2 | 33.5 | 36.3 | 0 | 30.5 | 33.8 | 35.7 | 0 | 30.5 | % Of inhibition for TDO enzyme (TDO enzyme; 32 nM): 34%; % Of inhibition for TDO enzyme (TDO enzyme; 160 nM): 47%; % Of inhibition for TDO enzyme (TDO enzyme; 800 nM): 49%; % Of inhibition for TDO enzyme (TDO enzyme; 4 µM): 65%; % Of inhibition for TDO enzyme (TDO enzyme; 20 µM): 63%; % Of inhibition for TDO enzyme (TDO enzyme; 100 µM): 83%; % of Secondary structural elements, Random (IDO1 [2]; compound 4 µM): 35.7%; % of Secondary structural elements, Turn (IDO1 [2]; compound 4 µM): 33.8%; interaction with human serum proteins (Trp-fluorescence quenching) [3]: more strongly |
| NS(=O)(=O)NCCNC(=O)c1n[nH]nc1-c1ccc(F)c(F)c1 [Compound 4k] | 98 ± 11 | competitive | 3.6 | 26.8 | 34.3 | 35.3 | 0 | 30.6 | 31.2 | 38.2 | 0 | 28 | 33.9 | 38.1 | 0 | 23.8 | 46.0 | 30.2 | 0 | 29.1 | tumor growth inhibition (TGI) (EAC solid tumor): 79–96%; CD8+ T cell population in vivo solid tumors (EAC solid tumor): induces CD8+ T cell population; inhibition at 0.032 µM (TDO enzyme; 32 nM): 13%; inhibition at 0.16 µM (TDO enzyme; 160 nM): 24%; inhibition at 0.8 µM (TDO enzyme; 800 nM): 46%; inhibition at 4 µM (TDO enzyme; 4 µM): 58%; inhibition at 20 µM (TDO enzyme; 20 µM): 63%; inhibition at 100 µM (TDO enzyme; 100 µM): 68%; % of Secondary structural elements, Random (IDO1 [2]; compound 4 µM): 36.4%; % of Secondary structural elements, Turn (IDO1 [2]; compound 4 µM): 34.5%; interaction with human serum proteins (Trp-fluorescence quenching) [3]: more strongly |
| NC(=O)c1n[nH]nc1-c1ccc(F)c(F)c1 [Compound 3i] | 160 ± 15 | competitive | 0 | 30.1 | 35.8 | 34.1 | 0 | 29.4 | 36.8 | 33.8 | 0 | 29.8 | 35.8 | 34.5 | 0 | 28.5 | 40.8 | 30.7 | 0 | 30.7 | tumor growth inhibition (TGI) (EAC solid tumor): 79–96% and 96%; CD8+ T cell population in vivo solid tumors (EAC solid tumor): induces CD8+ T cell population; % Of inhibition for TDO enzyme (TDO enzyme; 32 nM): 10%; % Of inhibition for TDO enzyme (TDO enzyme; 160 nM): 18%; % Of inhibition for TDO enzyme (TDO enzyme; 800 nM): 21%; % Of inhibition for TDO enzyme (TDO enzyme; 4 µM): 18%; % Of inhibition for TDO enzyme (TDO enzyme; 20 µM): 37%; % Of inhibition for TDO enzyme (TDO enzyme; 100 µM): 52%; % of Secondary structural elements, Random (IDO1 [2]; compound 4 µM): 60.4%; % of Secondary structural elements, Turn (IDO1 [2]; compound 4 µM): 8.9%; interaction with human serum proteins (Trp-fluorescence quenching) [3]: more strongly |
| O=C(N/C(Cc1ccc(O)cc1)=N\O)c1n[nH]nc1-c1ccc(F)c(F)c1 [Compound 4i] | 258 ± 22 | competitive | 0.7 | 27.8 | 37.6 | 33.9 | 0 | 28 | 38.1 | 33.9 | 0 | 27.6 | 40.6 | 31.8 | 0 | 29.8 | 42.6 | 27.6 | 0 | 31.8 | tumor growth inhibition (TGI) (EAC solid tumor): 79–96%; CD8+ T cell population in vivo solid tumors (EAC solid tumor): induces CD8+ T cell population; % Of inhibition for TDO enzyme (TDO enzyme; 32 nM): 15%; % Of inhibition for TDO enzyme (TDO enzyme; 160 nM): 25%; % Of inhibition for TDO enzyme (TDO enzyme; 800 nM): 26%; % Of inhibition for TDO enzyme (TDO enzyme; 4 µM): 50%; % Of inhibition for TDO enzyme (TDO enzyme; 20 µM): 66%; % Of inhibition for TDO enzyme (TDO enzyme; 100 µM): 73%; % of Secondary structural elements, Random (IDO1 [2]; compound 4 µM): 38.8%; % of Secondary structural elements, Turn (IDO1 [2]; compound 4 µM): 29.4% |
